Experimental data published in patent publication US20240279278A1, “NMU RECEPTOR 2 AGONISTS” (Boehringer Ingelheim International GmbH, priority 2023, published 2024).
Residues, ends and D or L forms follow the SMILES beside them.

Columns and labels:
Assay type in all cases: cell-based
human NMUR1 receptor = molecular target: T1, human NMUR1 receptor (Homo sapiens, UniProt Q9HB89); assay: IP1 Gq HTRF assay, activation of human NMUR1 in buffer; conditions: CHO-K1 cells expressing human NMUR1, stimulation buffer with 0.1% BSA; read-out: EC50 (hNMUR1) buffer
T1 construct: expressed in transfected cells; host or cells: CHO-K1
T1 sequence (Q9HB89 1-426): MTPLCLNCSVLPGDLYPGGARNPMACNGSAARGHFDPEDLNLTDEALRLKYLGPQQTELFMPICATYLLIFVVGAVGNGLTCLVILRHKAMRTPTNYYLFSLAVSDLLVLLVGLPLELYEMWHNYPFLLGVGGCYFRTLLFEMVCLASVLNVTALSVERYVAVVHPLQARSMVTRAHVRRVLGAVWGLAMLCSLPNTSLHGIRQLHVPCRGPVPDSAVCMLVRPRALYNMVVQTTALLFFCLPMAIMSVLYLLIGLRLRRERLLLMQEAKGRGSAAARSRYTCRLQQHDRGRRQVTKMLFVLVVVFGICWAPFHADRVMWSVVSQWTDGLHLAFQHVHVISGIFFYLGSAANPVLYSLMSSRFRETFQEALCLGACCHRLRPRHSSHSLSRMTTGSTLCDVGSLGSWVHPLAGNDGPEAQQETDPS
Excerpt: (§1) Example 3: IP1 Gq HTRF Assay Activation of Human NMUR2 or Human NMUR1 in Buffer Application of the Homogenous Time Resolved Fluorescence (HTRF) technology optimized for Gq coupled receptors has been described in detail in the Cisbio IP-One Gq kit manual. In brief, a FRET signal (FRET: fluorescence resonance energy transfer) is generated between the donor label of an IP-One antibody (anti-IP1-Tb) and the acceptor label of a tagged IP-One (IP1-d2). Agonism of a Gq coupled receptor increases intracellular IP-One, which competes with labeled IP-One and leads to a reduction of the FRET signal. Frozen stocks of CHO-K1 cells stably expressing the human NMUR1 or NMUR2 receptor were thawed and 5000 cells were seeded in culture medium (HAM'S F12, 10% FCS) into each well of a 384-well assay plate. After seeding, cells were incubated for 24 h in a humidified incubator at 37° C. and 5% CO2. Next, cells were washed once with 50 μL of wash buffer (20 mM Hepes, 1×HBSS, pH 7.4), followed by addition of either 10 μL of stimulation buffer (20 mM Hepes, 1×HBSS, 50 mM LiCl, 0.1% BSA, pH 7.4). Peptide agonists to be tested were dissolved in 100% DMSO and pre-diluted in stimulation buffer at a suitable concentration range for an 8 pt dose-response curve. 5 μL of peptide pre-dilution were then added to each well, followed by another 5 μL of stimulation buffer to give a final concentration of 1% DMSO. Samples were subsequently incubated for 1 hour in a humidified incubator at 37° C. After addition of 5 μL each of IP1-d2 and anti-IP1-Tb, samples were incubated for another 1 hour at room temperature and FRET signals (ratio 665 nm/620 nm) were measured. EC50 values were calculated by nonlinear regression using a 4-parameter sigmoidal curve fit.

human NMUR2 receptor [1] = molecular target: T2, human NMUR2 receptor (Homo sapiens, UniProt Q9GZQ4); assay: IP1 Gq HTRF assay, activation of human NMUR2 in human plasma; set-up: expressed in transfected cells; host or cells: CHO-K1; conditions: CHO-K1 cells expressing human NMUR2, 100% human plasma; read-out: EC50 (hNMUR2) human plasma
Excerpt: Example 4: IP1 Gq HTRF Assay Activation of Human NMUR2 in Human Plasma Application of the Homogenous Time Resolved Fluorescence (HTRF) technology optimized for Gq coupled receptors has been described in detail in the Cisbio IP-One Gq kit manual. In brief, a FRET signal is generated between the donor label of an IP-One antibody (anti-IP1-Tb) and the acceptor label of a tagged IP-One (IP1-d2). Agonism of a Gq coupled receptor increases intracellular IP-One, which competes with labeled IP-One and leads to a reduction of the FRET signal. Frozen stocks of CHO-K1 cells stably expressing the human NMUR1 receptor or human NMUR2 receptor were thawed and 5000 cells were seeded in culture medium (HAM'S F12, 10% FCS) into each well of a 384-well assay plate. After seeding, cells were incubated for 24 h in a humidified incubator at 37° C. and 5% CO2. Next, cells were washed once with […] of wash buffer (20 mM Hepes, 1×HBSS, pH 7.4), followed by addition of […] (100% human plasma, 50 mM LiCl). Peptide agonists to be tested were dissolved in 100% DMSO and pre-diluted in plasma at a suitable concentration range for an 8 pt dose-response curve. 5 μL of peptide pre-dilution were then added to each well, followed by another 5 μL of plasma to give a final concentration of 1% DMSO. Samples were subsequently incubated for 1 hour in a humidified incubator at 37° C. The plasma solution was replaced by 20 μL of stimulation buffer. After addition of 5 μL each of IP1-d2 and anti-IP1-Tb, samples were incubated for another 1 hour at room temperature and FRET signals (ratio 665 nm/620 nm) were measured. EC50 values were calculated by nonlinear regression using a 4-parameter sigmoidal curve fit.

human NMUR2 receptor [2] = molecular target: T2, human NMUR2 receptor; assay: IP1 Gq HTRF assay, activation of human NMUR2 in buffer; set-up: expressed in transfected cells; host or cells: CHO-K1; conditions: CHO-K1 cells expressing human NMUR2, stimulation buffer with 0.1% BSA; read-out: EC50 (hNMUR2) buffer
Excerpt: as §1

T2 sequence (Q9GZQ4 whole entry): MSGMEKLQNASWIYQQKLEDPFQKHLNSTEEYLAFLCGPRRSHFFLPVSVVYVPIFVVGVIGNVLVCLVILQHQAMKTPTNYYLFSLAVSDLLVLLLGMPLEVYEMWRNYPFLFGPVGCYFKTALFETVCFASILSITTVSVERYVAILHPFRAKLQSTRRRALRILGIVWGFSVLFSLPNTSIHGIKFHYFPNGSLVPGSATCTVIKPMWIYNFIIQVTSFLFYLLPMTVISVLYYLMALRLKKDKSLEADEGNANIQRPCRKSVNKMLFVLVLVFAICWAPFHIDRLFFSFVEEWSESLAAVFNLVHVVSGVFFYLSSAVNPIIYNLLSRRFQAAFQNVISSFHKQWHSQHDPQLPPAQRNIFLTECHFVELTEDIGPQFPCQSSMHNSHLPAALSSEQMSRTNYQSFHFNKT

| Compound | EC50 (human NMUR1 receptor) | EC50 (human NMUR2 receptor [1]) | EC50 (human NMUR2 receptor [2]) |
| --- | --- | --- | --- |
| CCCC[C@H](NC(=O)[C@H](CC(C)C)N(C)C(=O)[C@H](Cc1ccccc1)NC(=O)[C@H](Cc1ccc(O)cc1)NC(=O)CN1CCN(CCNC(=O)CN(C)C(=O)CN(C)C(=O)CN(C)C(=O)CN(C)C(=O)CN(C)C(=O)CN(C)C(=O)CN(C)C(=O)CN(C)C(=O)CN(C)C(=O)CN(C)C(=O)CN(C)C(=O)CN(C)C(=O)CN(C)C(=O)CN(C)C(=O)CN(C)C(=O)CC[C@H](NC(=O)CC[C@H](NC(=O)CC[C@H](NC(=O)CC[C@H](NC(=O)CCCCCCCCCCCCCCCCCCC(=O)O)C(=O)O)C(=O)O)C(=O)O)C(=O)O)CC1)C(=O)N[C@@H](CCCN)C(=O)N(C)[C@@H](C)C(=O)N[C@@H](CCCNC(=N)N)C(=O)NCC(N)=O [Compound 14, C20DA-gGlu4-Sar15-AEPipAc-Tyr-Phe-NMeLeu-Nle-Orn-NMeAla-Arg-Gly-NH2] (HELM PEPTIDE1{[O=C(O)CCCCCCCCCCCCCCCCCCC(=O)[*:2]].[gGlu].[gGlu].[gGlu].[gGlu].[Sar].[Sar].[Sar].[Sar].[Sar].[Sar].[Sar].[Sar].[Sar].[Sar].[Sar].[Sar].[Sar].[Sar].[Sar].[O=C(CN1CCN(CCN[*:1])CC1)[*:2]].Y.F.[meL].[Nle].[Orn].[meA].R.G.[am]}$$$$V2.0) | 1400 nM | 10.3 nM | 2.9 nM |
| CCCC[C@H](NC(=O)[C@H](CC(C)C)N(C)C(=O)[C@H](Cc1ccccc1)NC(=O)[C@H](Cc1ccc(O)cc1)NC(=O)CN1CCN(CCNC(=O)CN(C)C(=O)CN(C)C(=O)CN(C)C(=O)CN(C)C(=O)CN(C)C(=O)CN(C)C(=O)CN(C)C(=O)CN(C)C(=O)CN(C)C(=O)CN(C)C(=O)CN(C)C(=O)CN(C)C(=O)CN(C)C(=O)CN(C)C(=O)CN(C)C(=O)CC[C@H](NC(=O)CC[C@H](NC(=O)CC[C@H](NC(=O)CC[C@H](NC(=O)CCCCCCCCCCCCCCCCCCC(=O)O)C(=O)O)C(=O)O)C(=O)O)C(=O)O)CC1)C(=O)N[C@@H](CCN)C(=O)N(C)[C@@H](C)C(=O)N[C@@H](CCCNC(=N)N)C(=O)NCC(N)=O [Compound 16, C20DA-gGlu4-Sar15-AEPipAc-Tyr-Phe-NMeLeu-Nle-Dbu-NMeAla-Arg-Gly-NH2] (HELM PEPTIDE1{[O=C(O)CCCCCCCCCCCCCCCCCCC(=O)[*:2]].[gGlu].[gGlu].[gGlu].[gGlu].[Sar].[Sar].[Sar].[Sar].[Sar].[Sar].[Sar].[Sar].[Sar].[Sar].[Sar].[Sar].[Sar].[Sar].[Sar].[O=C(CN1CCN(CCN[*:1])CC1)[*:2]].Y.F.[meL].[Nle].[Dab].[meA].R.G.[am]}$$$$V2.0) | > 1000 nM | 11 nM | 3.3 nM |
| CCCC[C@H](NC(=O)[C@H](CC(C)C)N(C)C(=O)[C@H](Cc1ccccc1)NC(=O)[C@H](Cc1ccc(O)cc1)NC(=O)CN1CCN(CCNC(=O)CN(C)C(=O)CN(C)C(=O)CN(C)C(=O)CN(C)C(=O)CN(C)C(=O)CN(C)C(=O)CN(C)C(=O)CN(C)C(=O)CN(C)C(=O)CN(C)C(=O)CN(C)C(=O)CN(C)C(=O)CN(C)C(=O)CN(C)C(=O)CN(C)C(=O)CC[C@H](NC(=O)CC[C@H](NC(=O)CC[C@H](NC(=O)CC[C@H](NC(=O)CCCCCCCCCCCCCCCCCCC(=O)O)C(=O)O)C(=O)O)C(=O)O)C(=O)O)CC1)C(=O)N[C@@H](CCCCN)C(=O)N(C)[C@@H](C)C(=O)N[C@@H](CCCNC(=N)N)C(=O)NCC(N)=O [Compound 18, C20DA-gGlu4-Sar15-AEPipAc-Tyr-Phe-NMeLeu-Nle-Lys-NMeAla-Arg-Gly-NH2] (HELM PEPTIDE1{[O=C(O)CCCCCCCCCCCCCCCCCCC(=O)[*:2]].[gGlu].[gGlu].[gGlu].[gGlu].[Sar].[Sar].[Sar].[Sar].[Sar].[Sar].[Sar].[Sar].[Sar].[Sar].[Sar].[Sar].[Sar].[Sar].[Sar].[O=C(CN1CCN(CCN[*:1])CC1)[*:2]].Y.F.[meL].[Nle].K.[meA].R.G.[am]}$$$$V2.0) | > 1000 nM | 34.7 nM | 7 nM |
| CCCC[C@H](NC(=O)[C@H](CC(C)C)N(C)C(=O)[C@H](Cc1ccccc1)NC(=O)[C@H](Cc1ccc(O)cc1)NC(=O)CN1CCN(CCNC(=O)CN(C)C(=O)CN(C)C(=O)CN(C)C(=O)CN(C)C(=O)CN(C)C(=O)CN(C)C(=O)CN(C)C(=O)CN(C)C(=O)CN(C)C(=O)CN(C)C(=O)CN(C)C(=O)CN(C)C(=O)CC[C@H](NC(=O)CC[C@H](NC(=O)CC[C@H](NC(=O)CC[C@H](NC(=O)CCCCCCCCCCCCCCCCCCC(=O)O)C(=O)O)C(=O)O)C(=O)O)C(=O)O)CC1)C(=O)N[C@@H](CCCCN)C(=O)N(C)[C@@H](C)C(=O)N[C@@H](CCCNC(=N)N)C(=O)NCC(N)=O [Compound 19, C20DA-gGlu4-Sar12-AEPipAc-Tyr-Phe-NMeLeu-Nle-Lys-NMeAla-Arg-Gly-NH2] | 1400 nM | 36.6 nM | 5.7 nM |
| CCCC[C@H](NC(=O)[C@H](CC(C)C)N(C)C(=O)[C@H](Cc1ccccc1)NC(=O)[C@H](Cc1ccc(O)cc1)NC(=O)CN1CCN(CCNC(=O)CN(C)C(=O)CN(C)C(=O)CN(C)C(=O)CN(C)C(=O)CN(C)C(=O)CN(C)C(=O)CN(C)C(=O)CN(C)C(=O)CN(C)C(=O)CN(C)C(=O)CN(C)C(=O)CN(C)C(=O)CN(C)C(=O)CN(C)C(=O)CN(C)C(=O)CC[C@H](NC(=O)CC[C@H](NC(=O)CC[C@H](NC(=O)CCCCCCCCCCCCCCCCCCC(=O)O)C(=O)O)C(=O)O)C(=O)O)CC1)C(=O)N[C@@H](CCCN)C(=O)NCC(=O)N[C@@H](CCCNC(=N)N)C(=O)NCC(N)=O [Compound 29, C20DA-gGlu3-Sar15-AEPipAc-Tyr-Phe-NMeLeu-Nle-Orn-Gly-Arg-Gly-NH2] (HELM PEPTIDE1{[O=C(O)CCCCCCCCCCCCCCCCCCC(=O)[*:2]].[gGlu].[gGlu].[gGlu].[Sar].[Sar].[Sar].[Sar].[Sar].[Sar].[Sar].[Sar].[Sar].[Sar].[Sar].[Sar].[Sar].[Sar].[Sar].[O=C(CN1CCN(CCN[*:1])CC1)[*:2]].Y.F.[meL].[Nle].[Orn].G.R.G.[am]}$$$$V2.0) | > 1000 nM | 535 nM | 52 nM |
